In this test the target is T1, Prostaglandin E synthase (Homo sapiens, UniProt O14684).
T1 sequence (O14684 whole entry): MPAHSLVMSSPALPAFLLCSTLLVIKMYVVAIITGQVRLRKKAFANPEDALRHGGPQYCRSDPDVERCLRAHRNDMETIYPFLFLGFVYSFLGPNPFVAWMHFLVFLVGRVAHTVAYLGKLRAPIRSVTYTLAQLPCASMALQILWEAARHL
As to the kind of experiment: mPGES1 enzyme assay: mPGES1 was diluted with assay buffer and added into plate at 49 μL/well supplemented with 1 μL of compound (the final concentration of each compound at seven gradient concentrations was 10000 nM, 1000 nM, 100 nM, 10 nM, 1 nM, 0.1 nM and 0.01 nM). Each well was added with 3.8 μL of 20 μg/mL PGH precooled on ice after shaking for 30 seconds and incubated for 7 minutes on ice. Then, each well was added with 53.8 μL of 6 mg/mL SnCl2 to quench the reaction. The sample was diluted with dilute buffer at 1:400. 10 μl of diluted sample, 5 μL PGE2-d2 and 5 μL anti-PGE2 Cryptate were added to a black 384-well plate, and incubated at 4° C. overnight. HTRF was determined using Flexstation, and the IC50 of the compounds was obtained by data processing software. In general terms: TR-FRET usually uses a lanthanide donor and a delayed reading to cut background.

pIC50: −log10 of the molar value.

In the case of `CCn1c(-c2ccc(F)cc2)cc2cc(NC(=O)c3cc(CNC(=O)C(C)(C)C)ccc3Br)ccc21`, the pIC50 (commonly −log10 of the IC50, conventionally taken in molar units) is 8.22.

The record behind these values is ChEMBL document CHEMBL5725708, “Amide derivatives and pharmaceutically acceptable salts thereof, preparation method thereof and medicinal application thereof” (2018).
